Earlier results as cited in patent publication US8425924B2, “Propylene compositions containing a pyrethroid and products made therefrom” (ExxonMobil Chemical Patents Inc., priority 2009, dated 2013).

Conditions: thermal stability of the pyrethroid

| SMILES | stable up to a temperature |
| --- | --- |
| C=CCC1=C(C)C(OC(=O)[C@@H]2[C@@H](C=C(C)C)C2(C)C)CC1=O (some centres unmarked) [allethrin I] | more than 400 °C |
| CC1(C)[C@H](C(=O)O[C@H](C#N)c2cccc(Oc3ccccc3)c2)[C@@H]1C=C(Br)Br [deltamethrin] | up to 320 °C |
